In ChEMBL document CHEMBL1201862, “PubChem BioAssay data set” (2004):
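Interpolation was linear, between the two tested concentrations surrounding the appropriate level; five concentrations were tested over 48 hours in 96-well plates. GI50: concentration for 50% inhibition of growth.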 Calls of active or inactive are those of the source. Cut-off read from the data, not from the text of the source: active = GI50 up to about 1.1 µM and inactive = higher.

What was measured:
Assay in all cases: DTP human tumour cell line panel, 48 h
OVCAR-4 = tested on: OVCAR-4
SNB-75 = tested on: SNB-75
ACHN = tested on: ACHN
TK-10 = tested on: TK-10
OVCAR-5 = tested on: OVCAR-5
CCRF-CEM = tested on: CCRF-CEM
LOX IMVI = tested on: LOX IMVI
Malme-3M = tested on: Malme-3M
HT-29 = tested on: HT-29
NCI-H522 = tested on: NCI-H522
RPMI-8226 = tested on: RPMI-8226
SR = tested on: SR
A549 = tested on: A549
HOP-62 = tested on: HOP-62
CAKI-1 = tested on: CAKI-1
SK-OV-3 = tested on: SK-OV-3
M19-MEL = tested on: M19-MEL
HCC 2998 = tested on: HCC 2998
A498 = tested on: A498
KM-20L2 = tested on: KM-20L2

SMILES | GI50 (OVCAR-4) | GI50 (SNB-75) | GI50 (ACHN) | GI50 (TK-10) | GI50 (OVCAR-5) | GI50 (CCRF-CEM) | GI50 (LOX IMVI) | GI50 (Malme-3M) | GI50 (HT-29) | GI50 (NCI-H522) | GI50 (RPMI-8226) | GI50 (SR) | GI50 (A549) | GI50 (HOP-62) | GI50 (CAKI-1) | GI50 (SK-OV-3) | GI50 (M19-MEL) | GI50 (HCC 2998) | GI50 (A498) | GI50 (KM-20L2)
COc1ccc(C(c2cc3c(cc2O)OCO3)N2CCOCC2)cc1OC (stereo not drawn) | 15.6 µM (inactive) | 15.3 µM (inactive) | 11.4 µM (inactive) | 13.4 µM (inactive) | 9.95 µM (inactive) | 0.327 µM (active) | 4.01 µM (inactive) | 13.1 µM (inactive) | 12.9 µM (inactive) | 3.28 µM (inactive) | 2.66 µM (inactive) | 1.89 µM (inactive) | 22.4 µM (inactive) | 15.7 µM (inactive) | 12.8 µM (inactive) | 14.1 µM (inactive) |  |  |  | 
CCCCCCCCCCCCCCCCOCC(COP(=O)([O-])OCC[N+](C)(C)C)OCCCCCCCCCCCCCCCC (stereo not drawn) | > 100 µM (inactive) | > 100 µM (inactive) |  |  | > 100 µM (inactive) | > 100 µM (inactive) | > 100 µM (inactive) | > 100 µM (inactive) | > 100 µM (inactive) | > 100 µM (inactive) | > 100 µM (inactive) |  | > 10 µM (inactive) | > 100 µM (inactive) | > 100 µM (inactive) | > 100 µM (inactive) | > 100 µM (inactive) | > 100 µM (inactive) | > 100 µM (inactive) | > 100 µM (inactive)
O=C(Nc1ccc(F)cc1)c1cc2ccc(O)cc2o/c1=N\c1ccccc1F | 21.3 µM (inactive) |  | 20 µM (inactive) |  | 29.1 µM (inactive) | 17 µM (inactive) | 19.4 µM (inactive) | 50 µM (inactive) | > 100 µM (inactive) | 12.1 µM (inactive) | 8.04 µM (inactive) | 36.1 µM (inactive) |  | 11.5 µM (inactive) | 33.5 µM (inactive) | 12 µM (inactive) |  | 33.7 µM (inactive) | 37.6 µM (inactive) | 
NC(CCOCCP(=O)(O)CCC1C=CC=CC1)C(=O)O (stereo not drawn) | > 100 µM (inactive) | 64 µM (inactive) | > 100 µM (inactive) | > 100 µM (inactive) | > 100 µM (inactive) | > 100 µM (inactive) | 73.5 µM (inactive) |  | > 100 µM (inactive) | > 100 µM (inactive) | > 100 µM (inactive) | > 100 µM (inactive) | > 100 µM (inactive) |  | > 100 µM (inactive) | > 100 µM (inactive) |  | > 100 µM (inactive) |  | 
Cc1c2[nH]c3ccc(Br)cc3c2c(C)c2nccc(O)c12 | 16.3 µM (inactive) | 25.8 µM (inactive) | 10.1 µM (inactive) | 12.8 µM (inactive) | 14.5 µM (inactive) | 7.35 µM (inactive) | 15.5 µM (inactive) | 13 µM (inactive) | 14.4 µM (inactive) | 12 µM (inactive) | 14.3 µM (inactive) | 12.1 µM (inactive) | 10.2 µM (inactive) | 13.1 µM (inactive) | 13.8 µM (inactive) |  | 14.6 µM (inactive) | 16.2 µM (inactive) |  | 
Nc1nc(N)c2c(CCc3ccc(C(=O)N[C@@H](CCC(=O)O)C(=O)O)cc3)ccnc2n1 |  | 0.323 µM (active) | < 0.0236 µM (active) | 0.0363 µM (active) |  |  | < 0.01 µM (active) |  | < 0.0294 µM (active) | 0.0855 µM (active) | < 0.0145 µM (active) |  | 0.0731 µM (active) |  | < 0.0116 µM (active) | 0.0628 µM (active) |  | < 0.01 µM (active) | 0.541 µM (active) | 
CC(C)(CCCCC(C)(C)NC1=NCCO1)NC1=NCCO1 | > 10 µM (inactive) | > 10 µM (inactive) | > 10 µM (inactive) | > 10 µM (inactive) | > 10 µM (inactive) | > 10 µM (inactive) | > 10 µM (inactive) | > 10 µM (inactive) | > 10 µM (inactive) | > 10 µM (inactive) | > 10 µM (inactive) | > 10 µM (inactive) | > 10 µM (inactive) | > 10 µM (inactive) | > 10 µM (inactive) | > 10 µM (inactive) |  | > 10 µM (inactive) | > 10 µM (inactive) | 
O=C1C(=CNC(=S)c2ccccc2)C(=O)c2ccccc21 | 38.1 µM (inactive) | 58.9 µM (inactive) | 38.9 µM (inactive) | 41.6 µM (inactive) | > 100 µM (inactive) | 25 µM (inactive) | 43.1 µM (inactive) |  | > 100 µM (inactive) | 21 µM (inactive) | 25.2 µM (inactive) |  | 67.5 µM (inactive) | 91.8 µM (inactive) | 71.4 µM (inactive) | 21.7 µM (inactive) |  | 37 µM (inactive) |  | 
CC1C(NNC(N)=O)Oc2cc3c(cc2C1c1ccccc1O)OCO3 (stereo not drawn) |  | 27.9 µM (inactive) | 39.5 µM (inactive) | 46 µM (inactive) | > 100 µM (inactive) | 15.6 µM (inactive) | 46.7 µM (inactive) | 28.6 µM (inactive) | 34 µM (inactive) | 14.8 µM (inactive) | 21.5 µM (inactive) | 15 µM (inactive) | 31.8 µM (inactive) | 31.3 µM (inactive) | 29.5 µM (inactive) | 41.4 µM (inactive) |  | 84.3 µM (inactive) | 25.9 µM (inactive) | 
NC1C2C=CC(C2)C1C(=O)O (stereo not drawn) | > 100 µM (inactive) | > 100 µM (inactive) | > 100 µM (inactive) | > 100 µM (inactive) | > 100 µM (inactive) | > 100 µM (inactive) | > 100 µM (inactive) | > 100 µM (inactive) | > 100 µM (inactive) | > 100 µM (inactive) | > 100 µM (inactive) |  | > 100 µM (inactive) | > 100 µM (inactive) | > 100 µM (inactive) | > 100 µM (inactive) |  |  | > 100 µM (inactive) | 
CC(=O)O[C@H]1[C@@H](OC(C)=O)C(C)(C)/C=C/[C@H](C)C(=O)[C@@]2(OC(C)=O)C[C@@](C)(OC(C)=O)[C@H](OC(C)=O)[C@@H]2[C@H]2OC(=O)CC[C@@]2(OC(=O)c2ccccc2)[C@@H]1OCC(C)C | 62.7 µM (inactive) | 17.8 µM (inactive) | 15.6 µM (inactive) | 3.61 µM (inactive) | > 100 µM (inactive) | 11.2 µM (inactive) | > 100 µM (inactive) | 22.9 µM (inactive) | 13.5 µM (inactive) | 32.4 µM (inactive) |  |  |  | 6.04 µM (inactive) | 8.73 µM (inactive) | > 100 µM (inactive) |  | 19.5 µM (inactive) |  | 
O=C1C=CC2(O[C@@H](Cc3ccccc3)[C@H](Cc3ccccc3)O2)C(SC(=O)c2ccccc2)C1 (stereo partly drawn) | 1.47 µM (inactive) | 1.91 µM (inactive) | 0.929 µM (active) | 1.54 µM (inactive) | 0.439 µM (active) | 0.208 µM (active) | 0.38 µM (active) | 2.07 µM (inactive) | 1.64 µM (inactive) |  | 0.292 µM (active) | 0.138 µM (active) | 4.22 µM (inactive) | 1.11 µM (active) | 1.26 µM (inactive) | 2.75 µM (inactive) |  |  | 4.93 µM (inactive) | 
O=C1N[C@@H]([C@H](CCCCCO)OC(=O)c2ccccc2)CO1 | > 100 µM (inactive) | > 100 µM (inactive) | > 100 µM (inactive) | > 100 µM (inactive) | > 100 µM (inactive) | > 100 µM (inactive) | > 100 µM (inactive) |  | > 100 µM (inactive) |  | > 100 µM (inactive) | > 100 µM (inactive) | > 100 µM (inactive) | > 100 µM (inactive) | > 100 µM (inactive) | > 100 µM (inactive) |  |  | > 100 µM (inactive) | 
COc1cc2c(cc1Oc1c(Oc3c(O)c(OC)cc4c3C(CC(C)C)N(C)CC4)c(OC)cc3c1C(CC(C)C)N(C)CC3)C(CC(C)C)N(C)CC2 (stereo not drawn) | 1.12 µM (inactive) | 0.611 µM (active) |  |  | 5.11 µM (inactive) | 0.8 µM (active) | 0.931 µM (active) | 1.11 µM (active) | 0.547 µM (active) | 0.458 µM (active) | 2.34 µM (inactive) |  | 0.429 µM (active) | 0.533 µM (active) | 0.575 µM (active) | 1.12 µM (active) | 0.515 µM (active) | 0.92 µM (active) | 0.152 µM (active) | 0.698 µM (active)
CCN(CC)c1c(C)c(C(=O)OC)nn1-c1ccccc1 | > 100 µM (inactive) | > 100 µM (inactive) |  |  | > 100 µM (inactive) | 63.1 µM (inactive) | 86.5 µM (inactive) | > 96.6 µM (inactive) | 70.3 µM (inactive) | 63.8 µM (inactive) | 23.2 µM (inactive) |  | 97.5 µM (inactive) | > 100 µM (inactive) | > 44.7 µM (inactive) | > 100 µM (inactive) | > 66.2 µM (inactive) | > 43.7 µM (inactive) | > 85.1 µM (inactive) | > 100 µM (inactive)
C=C1CC(OC)(C(O)C(=O)N[C@H]2OCO[C@H]3C2O[C@H](C[C@@H](CO)OC)C(C)(C)C3OC)O[C@H](C)[C@@H]1C (stereo partly drawn) | < 0.00931 µM (active) | < 0.00931 µM (active) |  |  | < 0.00931 µM (active) | 0.0125 µM (active) | < 0.00931 µM (active) |  | < 0.00931 µM (active) |  | < 0.00931 µM (active) |  | < 0.00931 µM (active) | < 0.00931 µM (active) | < 0.00931 µM (active) | < 0.00931 µM (active) | < 0.00931 µM (active) |  | < 0.00931 µM (active) | < 0.00931 µM (active)
O=C1C(=O)c2cc([N+](=O)[O-])ccc2-c2ccc([N+](=O)[O-])cc21 | 0.322 µM (active) | 2.14 µM (inactive) |  |  | 3.27 µM (inactive) | 0.289 µM (active) | 0.346 µM (active) | 1.97 µM (inactive) | 7.46 µM (inactive) | 0.863 µM (active) | 0.302 µM (active) |  | 2.52 µM (inactive) | 2.89 µM (inactive) | 0.733 µM (active) | 2.51 µM (inactive) | 0.285 µM (active) | 2.25 µM (inactive) | 1.9 µM (inactive) | 4.88 µM (inactive)
